This test has as its target T1, mGluR5 receptor (pig) (Sus scrofa, UniProt I3LUI7).
T1 construct: 450 μg of protein from brain homogenate is incubated; from tissue; host or cells: pig brain hemispheres without medulla, cerebellum and pons
Briefly: [3H]-MPEP binding in the mGluR5 receptor binding assay (pig brain homogenate). The note with it: 5 nM [3H]-MPEP; for IC50: pig brain homogenate; for mGluR5 receptor (pig) (10 μM) Inhibition (%): 10 μM test compound, 450 μg protein from pig brain homogenate, 60 min, room temperature. Here is the method:
I. Method for Determining the Inhibition of [^3H]-MPEP Binding in the mGluR5 Receptor Binding Assay
Pig brain homogenate is produced by homogenisation (Polytron Pt 3000, Kinematica AG, 10,000 revolutions per minute for 90 seconds) of pig brain hemispheres without medulla, cerebellum and pons in a buffer of pH 8.0 (30 mM Hepes, Sigma, order number H3375+1 tablet Complete Roche Diagnostics, order number 1836145 made up to 100 ml) in a ratio of 1:20 (brain weight/volume) and differential centrifugation at 900×g and 40,000×g. 450 μg of protein from brain homogenate is incubated in each case in 250 μl incubation batches in 96-well microtitre plates with 5 nM ^3[H]-MPEP (Tocris, order number R1212) (MPEP=[…]) and the compounds to be investigated ([…]) in the buffer (as above) at room temperature for 60 min.
The batches are then filtered with the assistance of a Brandel Cell Harvester (Brandel, Robotic 9600 model) on Unifilter plates with glass filter mats (Perkin Elmer, order number 6005177) and then washed 3 times with buffer (as above) using 250 μl per sample. The filter plates are then dried for 60 min at 55° C. Then 30 μl of Ultima Gold™ scintillating material (Packard BioScience, order number 6013159) is added per well and after 3 hours the samples are measured using the β counter (Microbeta, Perkin Elmer). Nonspecific binding is determined by the addition of 10 μM MPEP (Tocris, order number 1212).

T1 sequence (I3LUI7 19-1212): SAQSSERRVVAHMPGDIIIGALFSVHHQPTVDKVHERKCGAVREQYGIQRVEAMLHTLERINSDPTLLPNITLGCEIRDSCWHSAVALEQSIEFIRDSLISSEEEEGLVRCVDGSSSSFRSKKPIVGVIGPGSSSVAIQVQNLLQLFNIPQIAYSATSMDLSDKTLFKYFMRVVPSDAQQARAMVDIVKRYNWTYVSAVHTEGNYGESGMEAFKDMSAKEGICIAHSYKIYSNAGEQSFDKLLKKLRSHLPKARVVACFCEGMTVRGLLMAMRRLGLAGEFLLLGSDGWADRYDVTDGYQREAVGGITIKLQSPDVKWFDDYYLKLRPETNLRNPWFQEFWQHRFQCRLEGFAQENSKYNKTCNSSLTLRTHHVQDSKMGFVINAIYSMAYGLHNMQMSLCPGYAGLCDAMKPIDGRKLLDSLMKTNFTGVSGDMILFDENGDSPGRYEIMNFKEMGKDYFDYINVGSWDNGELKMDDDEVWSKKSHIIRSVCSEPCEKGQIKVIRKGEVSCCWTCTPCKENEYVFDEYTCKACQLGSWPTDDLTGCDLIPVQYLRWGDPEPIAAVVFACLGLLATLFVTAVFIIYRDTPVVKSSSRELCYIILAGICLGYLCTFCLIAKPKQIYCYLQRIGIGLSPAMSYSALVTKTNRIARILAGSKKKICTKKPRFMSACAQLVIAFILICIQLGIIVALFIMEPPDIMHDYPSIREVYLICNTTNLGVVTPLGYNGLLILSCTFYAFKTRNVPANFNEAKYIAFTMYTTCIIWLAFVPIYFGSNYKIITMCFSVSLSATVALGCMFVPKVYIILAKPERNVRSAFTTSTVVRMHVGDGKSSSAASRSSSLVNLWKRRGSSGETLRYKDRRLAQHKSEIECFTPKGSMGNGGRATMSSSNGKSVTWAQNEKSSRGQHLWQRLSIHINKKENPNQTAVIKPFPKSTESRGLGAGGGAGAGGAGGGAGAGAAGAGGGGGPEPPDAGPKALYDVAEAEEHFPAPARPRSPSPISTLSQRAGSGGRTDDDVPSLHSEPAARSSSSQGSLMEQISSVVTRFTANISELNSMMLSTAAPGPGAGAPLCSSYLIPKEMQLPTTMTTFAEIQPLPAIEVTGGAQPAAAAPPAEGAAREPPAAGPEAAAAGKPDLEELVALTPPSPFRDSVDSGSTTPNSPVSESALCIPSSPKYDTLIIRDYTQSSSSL

Compound `O=C(C#Cc1cccc(Cl)c1)N1CCn2cccc2C1` [Example 27, 2-(3-(3-chlorophenyl)-propiolyl)-1,2,3,4-tetrahydropyrrolo[1,2-a]pyrazine] displayed a half-inhibitory concentration (IC50) of 26 nM.

Compound `O=C(C#Cc1ccccc1)N1CCc2ncccc2C1` [Example 4, 6-(3-phenyl-propiolyl)-5,6,7,8-tetrahydro-[1,6]naphthyridine] came in with a half-maximal inhibitory concentration (IC50) of 2320 nM.

For `O=C(C#Cc1ccccc1)N1Cc2ccccc2C1` [Example 6, 2-(3-phenyl-propiolyl)-2,3-dihydro-isoindole], the concentration for half-maximal inhibition (IC50) was determined as 1820 nM.

As to `COc1ccc(C#CC(=O)N2CCc3ccccc3C2)cc1` [Example 53, 2-(3-(4-methoxyphenyl)-propiolyl)-1,2,3,4-tetrahydro-isoquinoline], the “mGluR5 receptor (pig) (10 μM) Inhibition (%)” value is on record as 24%.

For `COc1cccc(C#CC(=O)N2CCc3ccccc3C2)c1` [Example 34, 2-(3-(3-methoxyphenyl)-propiolyl)-1,2,3,4-tetrahydro-isoquinoline], the “mGluR5 receptor (pig) (10 μM) Inhibition (%)” value is 12%.

As for `CC1Cc2ccccc2N1C(=O)C#Cc1cccs1` (stereo not drawn) [Example 56, 1-(3-(2-thienyl)-propiolyl)-2-methyl-indoline], the “mGluR5 receptor (pig) (10 μM) Inhibition (%)” value was found to be 48%.

Regarding `Cc1ccc(C#CC(=O)N2c3ccccc3CC2C)cc1F` (stereo not drawn) [Example 68, 1-(3-(3-fluoro-4-methylphenyl)-propiolyl)-2-methyl-indoline], the “mGluR5 receptor (pig) (10 μM) Inhibition (%)” value was found to be 11%.

As to `Cc1ccc(C#CC(=O)N2c3ccccc3CC2C)c(C)c1` (stereo not drawn) [Example 63, 1-(3-(2,4-dimethylphenyl)-propiolyl)-2-methyl-indoline], the “mGluR5 receptor (pig) (10 μM) Inhibition (%)” value amounted to 34%.

As to `O=C(C#Cc1cccs1)N1CCc2ccccc2C1` [Example 55, 2-(3-(2-thienyl)-propiolyl)-1,2,3,4-tetrahydro-isoquinoline], the “mGluR5 receptor (pig) (10 μM) Inhibition (%)” value was 86%.

Regarding `COc1ccc(C#CC(=O)N2c3ccccc3CC2C)cc1` (stereo not drawn) [Example 54, 1-(3-(4-methoxyphenyl)-propiolyl)-2-methyl-indoline], the “mGluR5 receptor (pig) (10 μM) Inhibition (%)” value turned out to be 46%.

As for `Cc1noc2c1CN(C(=O)C#Cc1ccccc1)CC2` [Example 8, 3-methyl-5-(3-phenyl-propiolyl)-4,5,6,7-tetrahydro-isoxazolo[4,5-c]pyridine], the IC50 was 3550 nM.

Consider `CC1Cc2ccccc2N1C(=O)C#Cc1ccc(F)cc1F` (stereo not drawn) [Example 33, 1-(3-(2,4-difluorophenyl)-propiolyl)-2-methyl-indoline], for which the “mGluR5 receptor (pig) (10 μM) Inhibition (%)” value came to 27%.

In the case of `COc1ccc2c(c1)CN(C(=O)C#Cc1cccc(Cl)c1)CC2` [Example 22, 2-(3-(3-chlorophenyl)-propiolyl)-7-methoxy-1,2,3,4-tetrahydro-isoquinoline], the IC50 turned out to be 76 nM.

Consider `CC1Cc2ccccc2N1C(=O)C#Cc1ccccc1` (stereo not drawn) [Example 44, 1-(3-phenyl-propiolyl)-2-methyl-indoline], for which the “mGluR5 receptor (pig) (10 μM) Inhibition (%)” value came out at 39%.

As for `Cc1cc(C#CC(=O)N2c3ccccc3CC2C)ccc1F` (stereo not drawn) [Example 36, 1-(3-(4-fluoro-3-methylphenyl)-propiolyl)-2-methyl-indoline], the “mGluR5 receptor (pig) (10 μM) Inhibition (%)” value is given as 27%.

On to `O=C(C#Cc1ccc(C(F)(F)F)cc1)N1CCc2ccccc2C1` [Example 41, 2-(3-(4-trifluoromethylphenyl)-propiolyl)-1,2,3,4-tetrahydro-isoquinoline], for which the “mGluR5 receptor (pig) (10 μM) Inhibition (%)” value is 16%.

Take `COc1cc2c(cc1O)CN(C(=O)C#Cc1cccc(Cl)c1)CC2` [Example 15, 2-(3-(3-chlorophenyl)-propiolyl)-7-hydroxy-6-methoxy-1,2,3,4-tetrahydro-isoquinoline]: the IC50 amounted to 720 nM.

`CC1Cc2ccccc2N1C(=O)C#Cc1ccc(Cl)cc1Cl` (stereo not drawn) [Example 50, 1-(3-(2,4-dichlorophenyl)-propiolyl)-2-methyl-indoline]: the “mGluR5 receptor (pig) (10 μM) Inhibition (%)” value worked out at 16%.

As for `Cc1ccccc1C#CC(=O)N1c2ccccc2CC1C` (stereo not drawn) [Example 74, 1-(3-(2-tolyl)-propiolyl)-2-methyl-indoline], the “mGluR5 receptor (pig) (10 μM) Inhibition (%)” value was 12%.

`O=C(C#Cc1cccc(Cl)c1)N1CCCc2ccccc2C1` [Example 21, 2-(3-(3-chlorophenyl)-propiolyl)-2,3,4,5-tetrahydro-1H-benzo[c]azepine] displayed a concentration for half-maximal inhibition (IC50) of 110 nM.

Take `Cc1cccc2c1CCN(C(=O)C#Cc1cccc(Cl)c1)C2` [Example 26, 2-(3-(3-chlorophenyl)-propiolyl)-5-methyl-1,2,3,4-tetrahydro-isoquinoline]: the IC50 is 4.7 nM.

For `O=C(C#Cc1ccccc1)N1CCc2ccccc2C1` [Example 43, 2-(3-phenyl-propiolyl)-1,2,3,4-tetrahydro-isoquinoline], the “mGluR5 receptor (pig) (10 μM) Inhibition (%)” value came to 84%.

With `Cc1ccc(C#CC(=O)N2CCc3ccccc3C2)cc1C` [Example 71, 2-(3-(3,4-dimethylphenyl)-propiolyl)-1,2,3,4-tetrahydro-isoquinoline], the “mGluR5 receptor (pig) (10 μM) Inhibition (%)” value was 43%.

For the compound `O=C(C#Cc1ccccc1)N1CCc2onc(-c3ccccc3)c2C1` [Example 9, 3-phenyl-5-(3-phenyl-propiolyl)-4,5,6,7-tetrahydro-isoxazolo[4,5-c]pyridine], the IC50 stood at 2360 nM.

Turning to `Cc1cc(C#CC(=O)N2CCc3ccccc3C2)ccc1F` [Example 35, 2-(3-(4-fluoro-3-methylphenyl)-propiolyl)-1,2,3,4-tetrahydro-isoquinoline], the “mGluR5 receptor (pig) (10 μM) Inhibition (%)” value is on record as 77%.

`Cc1ccc2c(c1)CN(C(=O)C#Cc1cccc(Cl)c1)CC2` [Example 25, 2-(3-(3-chlorophenyl)-propiolyl)-7-methyl-1,2,3,4-tetrahydro-isoquinoline] returned a 50% inhibitory concentration (IC50) of 4.7 nM.

For the compound `Cc1cccc(C#CC(=O)N2c3ccccc3CC2C)c1` (stereo not drawn) [Example 52, 1-(3-(3-tolyl)-propiolyl)-2-methyl-indoline], the “mGluR5 receptor (pig) (10 μM) Inhibition (%)” value is given as 68%.

Regarding `N#Cc1ccccc1C#CC(=O)N1CCc2ccccc2C1` [Example 76, 2-(3-(2-cyano-phenyl)-propiolyl)-1,2,3,4-tetrahydro-isoquinoline], the “mGluR5 receptor (pig) (10 μM) Inhibition (%)” value is reported as 26%.

`COc1ccc2c(c1)CCN(C(=O)C#Cc1cccc(Cl)c1)C2` [Example 17, 2-(3-(3-chlorophenyl)-propiolyl)-6-methoxy-1,2,3,4-tetrahydro-isoquinoline]: the IC50 is 240 nM.

Turning to `COc1cccc2c1CN(C(=O)C#Cc1cccc(Cl)c1)CC2` [Example 29, 2-(3-(3-chlorophenyl)-propiolyl)-8-methoxy-1,2,3,4-tetrahydro-isoquinoline], the half-inhibitory concentration (IC50) was found to be 8.4 nM.

As for `CC1Cc2ccccc2N1C(=O)C#Cc1ccc(F)cc1` (stereo not drawn) [Example 65, 1-(3-(4-fluorophenyl)-propiolyl)-2-methyl-indoline], the “mGluR5 receptor (pig) (10 μM) Inhibition (%)” value stood at 34%.

Regarding `Cc1ccc(C#CC(=O)N2CCc3ccccc3C2)cc1F` [Example 67, 2-(3-(3-fluoro-4-methylphenyl)-propiolyl)-1,2,3,4-tetrahydro-isoquinoline], the “mGluR5 receptor (pig) (10 μM) Inhibition (%)” value came out at 12%.

Compound `Cc1cccc2c1CN(C(=O)C#Cc1cccc(Cl)c1)CC2` [Example 24, 2-(3-(3-chlorophenyl)-propiolyl)-8-methyl-1,2,3,4-tetrahydro-isoquinoline] displayed a concentration for half-maximal inhibition (IC50) of 4.5 nM.

`O=C(C#Cc1cccc(Cl)c1)N1CCc2ccc(O)cc2C1` [Example 28] displayed a 50% inhibitory concentration (IC50) of 87 nM.

On to `Cc1cccc(C#CC(=O)N2CCc3ccccc3C2)c1` [Example 51, 2-(3-(3-tolyl)-propiolyl)-1,2,3,4-tetrahydro-isoquinoline], for which the “mGluR5 receptor (pig) (10 μM) Inhibition (%)” value is reported as 103%.

Compound `COc1cc2c(cc1OC)CN(C(=O)C#Cc1cccc(Cl)c1)CC2` [Example 11, 2-(3-(3-chlorophenyl)-propiolyl)-6,7-dimethoxy-1,2,3,4-tetrahydro-isoquinoline] showed a half-inhibitory concentration (IC50) of 2720 nM.

With `Cc1ccc2c(c1)CCN(C(=O)C#Cc1cccc(Cl)c1)C2` [Example 20, 2-(3-(3-chlorophenyl)-propiolyl)-6-methyl-1,2,3,4-tetrahydro-isoquinoline], the IC50 came out at 55 nM.

For the compound `Cc1ccc(C#CC(=O)N2c3ccccc3CC2C)cc1C` (stereo not drawn) [Example 72, 1-(3-(3,4-dimethylphenyl)-propiolyl)-2-methyl-indoline], the “mGluR5 receptor (pig) (10 μM) Inhibition (%)” value is recorded as 25%.

Regarding `Cc1ccc(C#CC(=O)N2CCc3ccccc3C2)cc1` [Example 39, 2-(3-(4-tolyl)-propiolyl)-1,2,3,4-tetrahydro-isoquinoline], the “mGluR5 receptor (pig) (10 μM) Inhibition (%)” value stood at 44%.

`CC1Cc2ccccc2N1C(=O)C#Cc1ccccc1F` (stereo not drawn) [Example 38, 1-(3-(2-fluorophenyl)-propiolyl)-2-methyl-indoline]: the “mGluR5 receptor (pig) (10 μM) Inhibition (%)” value is listed as 49%.

On to `COc1ccc(Br)c(C#CC(=O)N2c3ccccc3CC2C)c1` (stereo not drawn) [Example 73, 1-(3-(2-bromo-5-methoxyphenyl)-propiolyl)-2-methyl-indoline], for which the “mGluR5 receptor (pig) (10 μM) Inhibition (%)” value stood at 45%.

As for `Cc1ccc(C#CC(=O)N2c3ccccc3CC2C)cc1` (stereo not drawn) [Example 40, 1-(3-(4-tolyl)-propiolyl)-2-methyl-indoline], the “mGluR5 receptor (pig) (10 μM) Inhibition (%)” value is 34%.

The term IC50 denotes the concentration needed to halve the response being measured. A high value points to weaker potency.

(Values after patent US20090075978A1, “SUBSTITUTED PROPIOLIC ACID AMIDES AND THEIR USE FOR PRODUCING DRUGS” (Grunenthal GmbH, priority 2005, published 2009).)
